From patent publication US7442788B2, “Antisense molecules and method of controlling expression of gene function by using the same” (Japan Science and Technology Corporation, priority 2001, dated 2008)

Test system: d(C)8
Assay: Melting temperature (Tm) of homopurine PRNA-DNA complex
Type: binding

## NH2-isoGln(5′I)-isoGln(5′I)-isoGln(5′I)-isoGln(5′I)-isoGln(5′I)-isoGln(5′I)-isoGln(5′I)-isoGln(5′I)-Lys-OH [NH2-IIIIIIII-Lys-OH]
Binding target d(C)8, 20 mM borax
  Tm: <−5 °C
Binding target d(C)8, no additive
  Tm: 4.8 °C
